Test results published in ChEMBL document CHEMBL3227957, “(+)-Isobutaclamol: a crystallographic, pharmacological, and biochemical study” (J Med Chem, 1979).

Experiments:
Rattus norvegicus [1] = assay: Inhibition of (+)-amphetamine-induced stereotyped behavior in ip dosed rat administered 15 mins prior to (+)-amphetamine challenge measured after 15 mins; type: functional; settings: read-out: MED
[2] = Displacement of [3H]haloperidol from rat striatum dopamine receptor
[3] = Displacement of [3H]spiperone from calf striatum dopamine receptor; set-up: species or system Bos taurus
Rattus norvegicus [4] = species: Rattus norvegicus; assay: Displacement of [3H]haloperidol from rat striatum dopamine receptor at 1000 nM
Bos taurus = species: Bos taurus; assay: Displacement of [3H]spiperone from calf striatum dopamine receptor at 1000 nM

IC50 [2]	IC50 [3]	inhibition (Rattus norvegicus [4])	inhibition (Bos taurus)	SMILES	minimal effective dose (Rattus norvegicus [1])
0.8 nM	0.8 nM			Br.CC(C)(C)[C@]1(O)CCN2C[C@H]3Cc4ccccc4Cc4cccc(c43)[C@@H]2C1	0.31 mg/kg
1.7 nM	1.7 nM			CC(C)(C)[C@]1(O)CCN2C[C@H]3Cc4ccccc4Cc4cccc(c43)[C@@H]2C1.Cl (racemic)	0.62 mg/kg
		0%	0%	Br.CC(C)(C)[C@@]1(O)CCN2C[C@@H]3Cc4ccccc4Cc4cccc(c43)[C@H]2C1	> 25 mg/kg
